ChEMBL document CHEMBL3861946 (Medchemcomm, 2016)
Where a SMILES comes first, the peptide text is derived from it. The star is where a group is joined. Cbz = O=C(OCc1ccccc1)*; CH2F = FC*

Legend:
[1] = biological target: T1, Caspase-3 (Homo sapiens, UniProt P42574); assay: Inhibition of recombinant human caspase-3 using Ac-DEVD-AMC as substrate preincubated for 10 mins followed by substrate addition measured after 60 mins by fluorometric assay
T1 sequence (P42574 whole entry): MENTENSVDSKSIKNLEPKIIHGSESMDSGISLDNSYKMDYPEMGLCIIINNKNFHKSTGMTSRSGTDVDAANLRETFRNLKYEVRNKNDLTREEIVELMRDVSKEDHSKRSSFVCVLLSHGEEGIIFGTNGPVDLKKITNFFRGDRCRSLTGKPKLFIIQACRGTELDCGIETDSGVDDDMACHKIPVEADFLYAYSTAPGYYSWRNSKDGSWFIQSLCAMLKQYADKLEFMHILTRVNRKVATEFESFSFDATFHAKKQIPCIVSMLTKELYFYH

[2] = biological target: T2, Amine oxidase [flavin-containing] A (Homo sapiens, UniProt P21397); assay: Inhibition of recombinant human MAOA using kynuramine as substrate assessed as decrease in formation of 4-hydroxyquinoline incubated for 20 mins by fluorescence assay
T2 sequence (P21397 whole entry): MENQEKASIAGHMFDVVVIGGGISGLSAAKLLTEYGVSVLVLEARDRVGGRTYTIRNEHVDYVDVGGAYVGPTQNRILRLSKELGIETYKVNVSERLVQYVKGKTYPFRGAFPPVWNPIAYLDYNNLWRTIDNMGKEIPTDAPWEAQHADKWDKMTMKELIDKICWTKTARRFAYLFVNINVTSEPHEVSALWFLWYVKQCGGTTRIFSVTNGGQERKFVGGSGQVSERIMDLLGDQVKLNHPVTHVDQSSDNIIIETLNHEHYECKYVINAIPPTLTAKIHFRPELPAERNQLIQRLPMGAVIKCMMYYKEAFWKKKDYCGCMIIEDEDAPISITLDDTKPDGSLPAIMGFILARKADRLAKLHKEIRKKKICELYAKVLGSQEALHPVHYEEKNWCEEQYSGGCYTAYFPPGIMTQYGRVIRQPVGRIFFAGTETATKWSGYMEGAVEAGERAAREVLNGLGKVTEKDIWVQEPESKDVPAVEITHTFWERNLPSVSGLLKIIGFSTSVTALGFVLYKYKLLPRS

[3] = biological target: T3, Amine oxidase [flavin-containing] B (Homo sapiens, UniProt P27338); assay: Inhibition of recombinant human MAOB using kynuramine as substrate assessed as decrease in formation of 4-hydroxyquinoline incubated for 20 mins by fluorescence assay
T3 sequence (P27338 whole entry): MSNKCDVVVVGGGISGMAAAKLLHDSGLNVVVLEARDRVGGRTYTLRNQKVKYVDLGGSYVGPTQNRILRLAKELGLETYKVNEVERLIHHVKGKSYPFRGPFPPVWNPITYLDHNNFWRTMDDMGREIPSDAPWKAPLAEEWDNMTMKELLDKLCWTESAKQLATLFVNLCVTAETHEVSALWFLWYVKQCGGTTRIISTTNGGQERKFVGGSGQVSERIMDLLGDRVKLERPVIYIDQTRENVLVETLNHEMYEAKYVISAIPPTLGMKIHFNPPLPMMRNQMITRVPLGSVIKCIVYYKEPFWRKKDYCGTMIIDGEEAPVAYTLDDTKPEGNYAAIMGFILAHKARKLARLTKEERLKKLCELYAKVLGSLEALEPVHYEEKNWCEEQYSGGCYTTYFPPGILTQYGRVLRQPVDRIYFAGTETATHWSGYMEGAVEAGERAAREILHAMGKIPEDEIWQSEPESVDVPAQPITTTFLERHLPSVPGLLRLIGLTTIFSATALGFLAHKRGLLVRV

[4] = biological target: T2, Amine oxidase [flavin-containing] A; assay: Time-dependent inhibition of recombinant human MAOA using kynuramine as substrate assessed as decrease in formation of 4-hydroxyquinoline at 2 times IC50 preincubated for 15 to 60 mins followed by substrate addition measured after 15 mins by fluorescence assay; conditions: 0.25 h
[5] = species on record: Homo sapiens; assay: Selectivity ratio of IC50 for recombinant human MAOB to IC50 for recombinant human MAOA

| Structure (SMILES) | IC50 [1] [µM] | IC50 [2] [µM] | Ki [2] [µM] | IC50 [3] [µM] | Ki [3] [µM] | TDI [4] | Ratio IC50 [5] |
| --- | --- | --- | --- | --- | --- | --- | --- |
| COC(=O)C[C@H](NC(=O)[C@H](C)NC(=O)[C@@H](NC(=O)OCc1ccccc1)C(C)C)C(=O)CF (Cbz-Val-Ala-Asp(OMe)-CH2F) | 40 |  |  |  |  |  |  |
| C#CCN(C)[C@H](C)Cc1ccccc1 [SELEGILINE] | > 100 |  |  |  |  |  |  |
| C#CCN1C(=O)C(=O)c2cc(S(=O)(=O)N(C)Cc3cccc(F)c3)ccc21 |  | 10.7 | 2.81 | 70.6 | 30.4 |  |  |
| O=C1Nc2ccccc2C1=O [ISATIN] | > 100 |  |  |  |  |  |  |
| C#CCN(C)CCCOc1ccc(Cl)cc1Cl [CLORGILINE] | > 100 |  |  |  |  | Active |  |
| CN(Cc1ccc(F)cc1)S(=O)(=O)c1ccc2c(c1)C(=O)C(=O)N2 |  | 8.26 | 2.18 | 5.96 | 2.57 |  |  |
| C#CCN1C(=O)C(=O)c2ccccc21 | > 100 | 30.9 | 8.14 | 35.2 | 15.1 |  | 2.12 |
| CN(Cc1cccc(F)c1)S(=O)(=O)c1ccc2c(c1)C(=O)C(=O)N2 |  | 22.8 | 6 | 8.32 | 3.58 |  |  |
| C#CCN1C(=O)C(=O)c2cc(S(=O)(=O)N(C)Cc3ccccc3F)ccc21 |  | 9.43 | 2.48 | 128 | 55.2 |  |  |
| C#CCN1C(=O)C(=O)c2cc(S(=O)(=O)N(C)Cc3ccc(F)cc3)ccc21 | > 100 | 4.31 | 1.14 | > 100 |  |  | > 23.9 |
| CN(Cc1ccccc1F)S(=O)(=O)c1ccc2c(c1)C(=O)C(=O)N2 |  | 21.6 | 5.7 | > 100 |  |  |  |
